Earlier results on 7 compounds are cited in patent US11297852B2, “Method for treatment or prevention of gill disease” (NUTRECO IP ASSETS B.V., priority 2015, dated 2022).

For series [1], the system named is AGD. To be noted: in feed at 25 mg/kg.
For series [2] the following is noted: Atlantic salmon.
Series [3] deals with AGD. The settings on record: oral administration two weeks prior to challenge.
Series [4] concerns amoebae. The settings on record: in vitro bath treatment at 10 mg/l, used individually.
Series [5] deals with P. perurans. To be noted: in feed.
Series [6] concerns AGD. To be noted: oral supplementation.
[7] abbreviates: 7 days after P. perurans challenge.

Like-named read-outs stand apart in the source and are kept apart here.

`Oc1c(Cl)cc(Cl)cc1Sc1cc(Cl)cc(Cl)c1O` [Bithionol]: the AGD associated lesions result in series [1] is “delay and reduction in intensity”.
For the compound `CCOC(=O)[C@@H](N)CS` [LCEE, L-cysteine ethyl ester], the mucus viscosity result in series [2] is “reduce mucus viscosity”. Further, the “progression of AGD associated gill pathology” value in series [3] is “significantly delayed the progression”.
`CC[C@@H](C(=O)[C@@H](C)[C@@H](O)[C@H](C)CCc1ccc(C)c(O)c1C(=O)O)[C@H]1O[C@](CC)([C@H]2CC[C@](O)(CC)[C@H](C)O2)C[C@@H]1C` [Lasalocid acid]: the amoebae numbers result in series [4] is on record as “significantly reduced amoebae numbers”. Moreover, the “percent of lamella with lesions compared to control fed fish” value (from here on “percent of lamella with lesions”) in series [5] (14 and 21 days after challenge) is “no difference”; in series [5] (setting [7]) it was “reduced the percent of lamella with lesions”.
Consider `CO[C@@H]1[C@@H](OC)[C@H](C)[C@@](O)(CC(=O)O)O[C@H]1[C@H](C)[C@H]1O[C@@]2(CC[C@@](C)([C@H]3CC[C@@](C)([C@@H]4O[C@@H]([C@H]5O[C@](C)(O)[C@H](C)C[C@@H]5C)C[C@@H]4O[C@@H]4C[C@H](OC)[C@@H](OC)[C@H](C)O4)O3)O2)C[C@H](O)[C@H]1C` [Maduramycin], for which the amoebae numbers result in series [4] is listed as “significantly reduced amoebae numbers”. In addition, the “percent of lamella with lesions” value is “no difference” in series [5] (14 and 21 days after challenge); “reduced the percent of lamella with lesions” in series [5] (setting [7]).
In the case of `CC[C@@H](C(=O)[C@@H](C)[C@@H](O)[C@H](C)[C@@H]1O[C@@H]([C@@H](CC)C(=O)O)CC[C@@H]1C)[C@H]1O[C@]2(C=C[C@@H](O)[C@]3(CC[C@@](C)([C@H]4CC[C@](O)(CC)[C@H](C)O4)O3)O2)[C@H](C)C[C@@H]1C` [Salinomycin], the amoebae numbers result in series [4] is reported as “significantly reduced amoebae numbers”. Further, the “percent of lamella with lesions” value in series [5] (14 and 21 days after challenge) is “no difference”; in series [5] (setting [7]), “reduced the percent of lamella with lesions”.
Consider `c1ccc([C@H]2CN3CCSC3=N2)cc1` [levamisole], for which the “impact on mortality levels” value in series [6] is recorded as “no significant impact”.
Regarding glucans, the “impact on mortality levels” value in series [6] was “no significant impact”.
